What all share (assay type): toxicity, cell-based
The subject of one data set is HEK-293T. The experiment in a line: Incucyte cell viability with HEK293T. The conditions noted are these: human, 10 µM, compound concentration 10 uM.
Another data set concerns Fibroblast. The experiment in a line: Incucyte cell viability with human fibroblast. The conditions noted are these: 10 µM, compound concentration 10 uM.
Another data set relates to U2OS. The data set is described as follows: Incucyte cell viability with U2OS. The settings on record: human, 10 µM, compound concentration 10 uM.
Further: unitless GR value; below 1 slowed growth and below 0 cell loss.

Turning to `CC(C)(C)c1cc(C(C)(C)C)c(NC(=O)c2c[nH]c3ccccc3c2=O)cc1O` [IVACAFTOR], the “Growth Rate” value in the data set with HEK-293T (0 h, replicate number 2) turned out to be 0.3; in the data set with HEK-293T (6 h, replicate number 1), 0.19; in the data set on HEK-293T (6 h, replicate number 2), 0.98; in the data set with HEK-293T (12 h, replicate number 1), 0.71; with HEK-293T (12 h, replicate number 2), 0.69; in the data set with HEK-293T (18 h, replicate number 1), 0.65. The “Growth Rate” value is on record as 0.75 in the data set with HEK-293T (18 h, replicate number 2); 0.92 with HEK-293T (24 h, replicate number 1); 0.72 in the data set on HEK-293T (24 h, replicate number 2); -0.84 in the data set on Fibroblast (0 h, replicate number 2); 0.55 in the data set with Fibroblast (6 h, replicate number 2); 0.28 in the data set with Fibroblast (18 h, replicate number 1). Also, the “Growth Rate” value with Fibroblast (18 h, replicate number 2) is 0.65; in the data set with Fibroblast (24 h, replicate number 2) it was 0.91; in the data set on U2OS (0 h, replicate number 2) it was 0.5; in the data set with U2OS (12 h, replicate number 2), 0.7; with U2OS (18 h, replicate number 2), 0.92; with U2OS (24 h, replicate number 1), 0.98. In the data set on U2OS (24 h, replicate number 2), the “Growth Rate” value amounted to 0.89.

Take `Fc1cccc(-n2cnc3c(NCc4nc5ccc(F)c(F)c5[nH]4)nc(N4CCOCC4)nc32)c1`: the “Growth Rate” value is recorded as -0.62 in the data set with HEK-293T (0 h, replicate number 1); -0.14 in the data set on HEK-293T (6 h, replicate number 1); -0.21 in the data set with HEK-293T (6 h, replicate number 2); -0.36 with HEK-293T (12 h, replicate number 1); -0.28 in the data set on HEK-293T (18 h, replicate number 1); -0.31 in the data set on HEK-293T (18 h, replicate number 2). Further, the “Growth Rate” value in the data set on HEK-293T (24 h, replicate number 1) is recorded as -0.21; with HEK-293T (24 h, replicate number 2), -0.25; in the data set with Fibroblast (6 h, replicate number 1), -0.08; with Fibroblast (6 h, replicate number 2), -0.22; in the data set with Fibroblast (12 h, replicate number 1), 0.02; with Fibroblast (12 h, replicate number 2), -0.11. Further, the “Growth Rate” value was 0.04 with Fibroblast (18 h, replicate number 1); -0.03 in the data set on Fibroblast (18 h, replicate number 2); -0.01 with Fibroblast (24 h, replicate number 1); 0.03 in the data set on Fibroblast (24 h, replicate number 2); 0.56 in the data set on U2OS (6 h, replicate number 1); 0.06 in the data set with U2OS (12 h, replicate number 1). Further, the “Growth Rate” value in the data set on U2OS (18 h, replicate number 1) is listed as -0.23; in the data set with U2OS (18 h, replicate number 2), 0.61; with U2OS (24 h, replicate number 1), -0.23; in the data set with U2OS (24 h, replicate number 2), 0.38.

In the case of `CC(C)(C)NC(=O)c1cncn1C1CCN(c2ccc(-c3nnc(C(F)(F)F)o3)cn2)CC1`, the “Growth Rate” value is reported as -0.46 in the data set on HEK-293T (0 h, replicate number 1); -0.33 in the data set on HEK-293T (0 h, replicate number 2); 0.35 with HEK-293T (6 h, replicate number 1); -0.15 in the data set on HEK-293T (6 h, replicate number 2); 0.06 in the data set on HEK-293T (12 h, replicate number 1); -0.22 in the data set with HEK-293T (12 h, replicate number 2). For the same compound, the “Growth Rate” value in the data set on HEK-293T (18 h, replicate number 1) is recorded as 0.18; with HEK-293T (18 h, replicate number 2), -0.09; in the data set on HEK-293T (24 h, replicate number 1) it was 0.15; in the data set with HEK-293T (24 h, replicate number 2), 0.08; with Fibroblast (0 h, replicate number 1) it was -1; in the data set with Fibroblast (6 h, replicate number 1), 0.1. The “Growth Rate” value in the data set with Fibroblast (6 h, replicate number 2) is recorded as -0.99; in the data set on Fibroblast (12 h, replicate number 1) it was -0.09; with Fibroblast (12 h, replicate number 2), -0.49; in the data set with Fibroblast (18 h, replicate number 1), -0.2; with Fibroblast (18 h, replicate number 2), -0.39; in the data set with Fibroblast (24 h, replicate number 1), -0.13. The “Growth Rate” value in the data set with Fibroblast (24 h, replicate number 2) is recorded as -0.11; in the data set with U2OS (0 h, replicate number 1) it was -0.02; with U2OS (0 h, replicate number 2), 0.52; in the data set on U2OS (6 h, replicate number 1), -0.4; in the data set on U2OS (6 h, replicate number 2) it was 0; in the data set with U2OS (12 h, replicate number 1) it was -0.09. In addition, the “Growth Rate” value in the data set with U2OS (12 h, replicate number 2) came to 0.34; with U2OS (18 h, replicate number 1), 0.27; in the data set with U2OS (18 h, replicate number 2), 0.46; with U2OS (24 h, replicate number 1), 0.32; in the data set with U2OS (24 h, replicate number 2), 0.6.

Turning to `N#Cc1ccnc(Nc2cc(C3CCN(C4COC4)CC3)cc(N3CCC(F)(F)C3)n2)c1`, the “Growth Rate” value with HEK-293T (0 h, replicate number 1) is reported as -0.35; with HEK-293T (6 h, replicate number 1), 0.58; with HEK-293T (6 h, replicate number 2) it was -0.9; with HEK-293T (12 h, replicate number 1) it was 0.85; in the data set with HEK-293T (12 h, replicate number 2) it was -0.54; with HEK-293T (18 h, replicate number 1), 0.46. For the same compound, the “Growth Rate” value is on record as -0.37 in the data set with HEK-293T (18 h, replicate number 2); 0.44 in the data set with HEK-293T (24 h, replicate number 1); -0.26 with HEK-293T (24 h, replicate number 2); -1 in the data set on Fibroblast (6 h, replicate number 2); -0.47 with Fibroblast (12 h, replicate number 2); -0.85 in the data set with Fibroblast (18 h, replicate number 1). The “Growth Rate” value in the data set with Fibroblast (18 h, replicate number 2) was 0.21; in the data set on Fibroblast (24 h, replicate number 1), -0.29; in the data set on Fibroblast (24 h, replicate number 2) it was 0.43; in the data set with U2OS (0 h, replicate number 2) it was -1; in the data set on U2OS (6 h, replicate number 1) it was 0.88; in the data set on U2OS (6 h, replicate number 2) it was 0.29. Moreover, the “Growth Rate” value in the data set on U2OS (12 h, replicate number 1) came to 0.44; with U2OS (12 h, replicate number 2) it was 0.38; with U2OS (18 h, replicate number 1), 0.22; with U2OS (18 h, replicate number 2), 0.46; with U2OS (24 h, replicate number 1) it was 0.18; in the data set on U2OS (24 h, replicate number 2) it was 0.44.

`Cc1csc(S(=O)(=O)N(CC(C)C)c2cc3c(cc2OCc2ccc(C(=O)O)cc2)CCC3)n1`: the “Growth Rate” value is listed as -0.23 in the data set with HEK-293T (0 h, replicate number 1); -0.11 in the data set with HEK-293T (0 h, replicate number 2); -0.95 in the data set on Fibroblast (0 h, replicate number 2); 0.68 in the data set with Fibroblast (6 h, replicate number 1); 0.06 with Fibroblast (6 h, replicate number 2); 0.69 in the data set with Fibroblast (12 h, replicate number 2). In addition, the “Growth Rate” value in the data set with U2OS (6 h, replicate number 2) was determined as 0.87; with U2OS (12 h, replicate number 2), 0.88; in the data set with U2OS (18 h, replicate number 1) it was 0.99; in the data set on U2OS (18 h, replicate number 2) it was 0.83; in the data set with U2OS (24 h, replicate number 1), 0.99; in the data set on U2OS (24 h, replicate number 2), 0.86.

With `COc1ccc(S(=O)(=O)N2CCOCC2)cc1Nc1ccc2c(n1)N(C1CCOCC1)[C@H](C)C(=O)N2C`, the “Growth Rate” value in the data set on HEK-293T (24 h, replicate number 1) is reported as 0.7; in the data set with HEK-293T (24 h, replicate number 2) it was 0.81; in the data set with Fibroblast (0 h, replicate number 2), -0.13; in the data set with Fibroblast (6 h, replicate number 2) it was -0.44; in the data set on Fibroblast (12 h, replicate number 2), 0.55; with Fibroblast (18 h, replicate number 2), 0.25. For the same compound, the “Growth Rate” value in the data set on Fibroblast (24 h, replicate number 2) is 0.36; with U2OS (24 h, replicate number 1), 0.7; with U2OS (24 h, replicate number 2) it was 0.96.

Turning to `COc1cc2ncnc(Nc3ccc(Oc4ccccc4)cc3C)c2cc1OC.Cl`, the “Growth Rate” value with HEK-293T (0 h, replicate number 1) was -0.14; in the data set with HEK-293T (0 h, replicate number 2), -0.45; in the data set with Fibroblast (0 h, replicate number 1), -0.71; in the data set on Fibroblast (0 h, replicate number 2) it was -0.78; in the data set on Fibroblast (6 h, replicate number 1), 0.3; in the data set on Fibroblast (12 h, replicate number 1), -1. Besides, the “Growth Rate” value with U2OS (0 h, replicate number 1) was 0.5; in the data set with U2OS (0 h, replicate number 2) it was -0.92; in the data set on U2OS (6 h, replicate number 2), 0.35; in the data set on U2OS (12 h, replicate number 2), 0.74.

Consider `O=C1NC(Nc2ccccc2)=N/C1=C\c1ccc2c(c1)OCO2`, for which the “Growth Rate” value came out at 0.4 in the data set with HEK-293T (0 h, replicate number 1); 0.1 with HEK-293T (0 h, replicate number 2); 0.83 in the data set with HEK-293T (6 h, replicate number 1); 0 in the data set on HEK-293T (6 h, replicate number 2); 0.37 with HEK-293T (12 h, replicate number 1); 0.19 in the data set with HEK-293T (12 h, replicate number 2). Besides, the “Growth Rate” value in the data set on HEK-293T (18 h, replicate number 1) is on record as 0.43; in the data set on HEK-293T (18 h, replicate number 2), 0.47; with HEK-293T (24 h, replicate number 1) it was 0.56; in the data set on HEK-293T (24 h, replicate number 2), 0.33; in the data set with Fibroblast (0 h, replicate number 2) it was -0.92; in the data set on Fibroblast (6 h, replicate number 1), -0.96. The “Growth Rate” value in the data set with U2OS (6 h, replicate number 2) came to 0.78; in the data set on U2OS (12 h, replicate number 2), 0.39; in the data set with U2OS (18 h, replicate number 1) it was 0.85; in the data set with U2OS (18 h, replicate number 2), 0.66; with U2OS (24 h, replicate number 1), 0.95; in the data set with U2OS (24 h, replicate number 2) it was 0.66.

These data come from ChEMBL document CHEMBL5303304, “EUbOPEN Chemogenomics Library - IncuCyte” (2023).
